Source: patent publication US20260217708A1, “FUSED BENZAZEPINE DERIVATIVES FOR USE IN THE TREATMENT OF CANCER AND EPILEPSY” (UCB BIOPHARMA SRL, priority 2023, published 2026)

Key:
system Xc^− [1] = target: T1, system Xc^− (Homo sapiens, UniProt Q9UPY5); test: Cystine-induced glutamate release assay; type: cell-based; set-up: endogenous in cells; host or cells: H4 cells; settings: H4 cells, sodium-free HEPES buffer, 50 μM L-Cystine, 2 hours, Amplex Red glutamate readout; for IC50: read-out: pIC50 Cystine-induced glutamate release assay (converted)
T1 sequence (Q9UPY5 1-501): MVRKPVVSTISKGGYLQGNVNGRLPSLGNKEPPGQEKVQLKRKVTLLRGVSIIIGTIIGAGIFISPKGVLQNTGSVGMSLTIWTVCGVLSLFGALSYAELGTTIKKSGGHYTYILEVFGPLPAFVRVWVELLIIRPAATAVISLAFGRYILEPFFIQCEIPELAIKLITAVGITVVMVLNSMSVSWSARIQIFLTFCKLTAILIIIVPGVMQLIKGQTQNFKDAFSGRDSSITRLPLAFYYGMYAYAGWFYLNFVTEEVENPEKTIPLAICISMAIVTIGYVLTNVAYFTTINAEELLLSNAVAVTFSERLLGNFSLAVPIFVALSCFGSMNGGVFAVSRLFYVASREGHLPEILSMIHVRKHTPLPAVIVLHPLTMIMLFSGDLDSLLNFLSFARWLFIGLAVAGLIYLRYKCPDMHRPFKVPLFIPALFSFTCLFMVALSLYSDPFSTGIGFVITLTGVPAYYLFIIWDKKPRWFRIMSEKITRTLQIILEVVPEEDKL
T1 sequence (P08195 1-529 partner): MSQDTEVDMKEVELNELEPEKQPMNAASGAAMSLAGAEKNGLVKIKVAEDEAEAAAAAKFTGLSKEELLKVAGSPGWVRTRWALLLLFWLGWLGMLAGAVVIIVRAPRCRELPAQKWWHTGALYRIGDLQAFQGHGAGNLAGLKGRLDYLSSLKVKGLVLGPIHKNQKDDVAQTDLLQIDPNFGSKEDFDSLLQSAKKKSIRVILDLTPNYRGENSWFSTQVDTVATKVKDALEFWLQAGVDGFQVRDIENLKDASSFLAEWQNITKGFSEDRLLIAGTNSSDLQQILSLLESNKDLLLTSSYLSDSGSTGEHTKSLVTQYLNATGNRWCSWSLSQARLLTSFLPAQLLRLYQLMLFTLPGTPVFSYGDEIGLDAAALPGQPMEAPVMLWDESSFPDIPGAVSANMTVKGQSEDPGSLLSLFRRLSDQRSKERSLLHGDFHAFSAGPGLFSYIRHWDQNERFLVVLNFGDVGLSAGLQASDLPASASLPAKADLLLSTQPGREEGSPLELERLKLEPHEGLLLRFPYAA
Outline: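 IC50 (reported as pIC50) normalized to DMSO 1% and Erastin 50 μM controls, from Amplex Red fluorescence of glutamate exported into supernatant. H4 cells were washed into sodium-free buffer to exclude EAAT transport, then given compound with 50 μM L-cystine for 2 h in the incubator.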

system Xc^− [2] = target: T1, system Xc^−; test: [^14C]L-Cystine uptake assay; type: cell-based; set-up: endogenous in cells; host or cells: H4 cells; settings: H4 cells, sodium-free HEPES buffer, 0.5 μM L-[14C]Cystine and 4.5 μM L-Cystine, 1 hour at 37° C.; for IC50: read-out: pIC50 [^14C] L-Cystine uptake assay (converted)
Outline: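 Compound effect is given as pIC50, taken between controls of 1% DMSO and 50 μM Erastin. Human H4 cells were pretreated 15 min with compound in sodium-free buffer, then took up 0.5 μM [14C]cystine with 4.5 μM cold cystine for 1 hour at 37° C, read by scintillation proximity counting.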

| SMILES | IC50 (system Xc^− [1]) [nM] | IC50 (system Xc^− [2]) [nM] | pIC50 Cystine-induced glutamate release assay (system Xc^− [1]) | pIC50 [^14C] L-Cystine uptake assay (system Xc^− [2]) |
| --- | --- | --- | --- | --- |
| Cc1cc2c(c(Cl)n1)-c1cccnc1C(C)C(=O)N2CC(=O)Nc1cc(F)c(Cl)cc1F (single isomer, unassigned) [#226, Enantiomer (10S) or (10R) of N-(4-chloro-2,5-difluoro-phenyl)-2-[3-chloro-5,10-dimethyl-9-oxo-4,8,12-triazatricyclo[9.4.0.0^2,7]pentadeca-1(11),2(7),3,5,12,14-hexaen-8-yl]acetamide] | < 15.8 | 15.8 to 39.8 | – | – |
| Cc1cc2c(c(Cl)n1)-c1cccnc1C(C)C(=O)N2CC(=O)Nc1ccc(Br)cc1F (single isomer, unassigned) [#227, Enantiomer (10S) or (10R) of N-(4-bromo-2-fluoro-phenyl)-2-[3-chloro-5,10-dimethyl-9-oxo-4,8,12-triazatricyclo[9.4.0.0^2,7]pentadeca-1(11),2(7),3,5,12,14-hexaen-8-yl]acetamide] | < 15.8 | 15.8 to 39.8 | – | – |
| Cc1cc2c(c(Cl)n1)-c1cccnc1C(C)C(=O)N2CC(=O)Nc1ccc(C(F)(F)F)nc1 (single isomer, unassigned) [#228, Enantiomer (10S) or (10R) of 2-[3-chloro-5,10-dimethyl-9-oxo-4,8,12-triazatricyclo[9.4.0.0^2,7]pentadeca-1(15),2,4,6,11,13-hexaen-8-yl]-N-[6-(trifluoromethyl)-3-pyridyl]acetamide] | < 15.8 | < 15.8 | – | – |
| Cc1cc2c(c(Cl)n1)-c1cccnc1C(C)C(=O)N2CC(=O)Nc1ccc(C(F)(F)F)cn1 (single isomer, unassigned) [#229, Enantiomer (10S) or (10R) of 2-[3-chloro-5,10-dimethyl-9-oxo-4,8,12-triazatricyclo[9.4.0.0^2,7]pentadeca-1(15),2,4,6,11,13-hexaen-8-yl]-N-[5-(trifluoromethyl)-2-pyridyl]acetamide] | 15.8 to 39.8 | 39.8 to 100 | – | – |
| Cc1cc2c(c(Cl)n1)-c1cccnc1C(C)C(=O)N2CC(=O)Nc1ccc(C(F)F)nc1 (single isomer, unassigned) [#230, Enantiomer (10R) or (10S) of 2-[3-chloro-5,10-dimethyl-9-oxo-4,8,12-triazatricyclo[9.4.0.0^2,7]pentadeca-1(11),2(7),3,5,12,14-hexaen-8-yl]-N-[6-(difluoromethyl)-3-pyridyl]acetamide] | 15.8 to 39.8 | 15.8 to 39.8 | – | – |
| Cc1cc2c(c(F)n1)-c1cccnc1[C@@H](C)C(=O)N2CC(=O)Nc1ccc(C(F)F)c(F)c1 (single isomer, unassigned) [#235] | < 15.8 | < 15.8 | – | – |
| Cc1cc2c(c(F)n1)-c1cccnc1[C@@H](C)C(=O)N2CC(=O)Nc1ccc(C(C)(F)F)c(F)c1 (single isomer, unassigned) [#236] | 15.8 to 39.8 | 15.8 to 39.8 | – | – |
| Cc1cc2c(c(F)n1)-c1cccnc1[C@@H](C)C(=O)N2CC(=O)Nc1ccc2cnc(F)cc2c1 (single isomer, unassigned) [#239] | 15.8 to 39.8 | 15.8 to 39.8 | – | – |
| Cc1cc2c(c(F)n1)-c1cccnc1[C@@H](C)C(=O)N2CC(=O)Nc1ccc2c(Cl)nccc2c1 (single isomer, unassigned) [#240] | 15.8 to 39.8 | 39.8 to 100 | – | – |
| Cc1cc2c(cn1)-c1cccnc1C(C)C(=O)N2CC(=O)Nc1ccc(C(F)F)cc1 (single isomer, unassigned) [#250, Enantiomer (10S) or (10R) of N-[4-(difluoromethyl)phenyl]-2-[5,10-dimethyl-9-oxo-4,8,12-triazatricyclo[9.4.0.0^2,l]pentadeca-1(15),2,4,6,11,13-hexaen-8-yl]acetamide] | – | – | C (about 7.40 < pIC50 ≤ about 7.80) | B (about 7.00 < pIC50 ≤ about 7.40) |
| Cc1cc2c(cn1)-c1cccnc1C(C)C(=O)N2CC(=O)Nc1ccc(Cl)c(F)c1 (single isomer, unassigned) [#251, N-(4-chloro-3-fluoro-phenyl)-2-[5,10-dimethyl-9-oxo-4,8,12-triazatricyclo[9.4.0.0^2,7]pentadeca-1(15),2,4,6,11,13-hexaen-8-yl]acetamide] | < 15.8 | < 15.8 | – | – |
| Cc1cc2c(cn1)-c1cccnc1C(C)C(=O)N2CC(=O)Nc1ccc(C(F)F)c(F)c1 (single isomer, unassigned) [#252, N-[4-(difluoromethyl)-3-fluoro-phenyl]-2-[5,10-dimethyl-9-oxo-4,8,12-triazatricyclo[9.4.0.0^2,7]pentadeca-1(15),2,4,6,11,13-hexaen-8-yl]acetamide] | < 15.8 | 15.8 to 39.8 | – | – |
| Cc1cc2c(cn1)-c1cccnc1C(C)C(=O)N2CC(=O)Nc1ccc(F)c(Cl)c1 (single isomer, unassigned) [#253, N-(3-chloro-4-fluoro-phenyl)-2-(5,10-dimethyl-9-oxo-4,8,12-triazatricyclo[9.4.0.0^2,7]pentadeca-1(11),2(7).3,5,12,14-hexaen-8-yl)acetamide] | 39.8 to 100 | 39.8 to 100 | – | – |
| Cc1cc2c(c(F)n1)-c1ccnnc1C(C)C(=O)N2CC(=O)Nc1ccc(C(F)F)cc1 (single isomer, unassigned) [#257, N-[4-(difluoromethyl)phenyl]-2-[3-fluoro-5,10-dimethyl-9-oxo-4,8,12,13-tetrazatricyclo[9.4.0.0^2,7]pentadeca-1(15),2,4,6,11,13-hexaen-8-yl]acetamide] | 39.8 to 100 | 39.8 to 100 | – | – |
| Cc1cc2c(c(Cl)n1)-c1ccnnc1C(C)C(=O)N2CC(=O)Nc1ccc(Cl)c(F)c1 (single isomer, unassigned) [#258, 2-[3-chloro-5,10-dimethyl-9-oxo-4,8,12,13-tetrazatricyclo[9.4.0.0^2,7]pentadeca-1(15),2,4,6,11,13-hexaen-8-yl]-N-(4-chloro-3-fluoro-phenyl)acetamide] | < 15.8 | < 15.8 | – | – |
| Cc1cc2c(c(F)n1)-c1cnccc1C(C)C(=O)N2CC(=O)Nc1ccc(C(F)F)cc1 (single isomer, unassigned) [#259, N-[4-(difluoromethyl)phenyl]-2-[3-fluoro-5,10-dimethyl-9-oxo-4,8,14-triazatricyclo[9.4.0.0^2,7]pentadeca-1(15),2,4,6,11,13-hexaen-8-yl]acetamide] | < 15.8 | < 15.8 | – | – |
| Cc1cc2c(c(F)n1)-c1cc(F)cnc1[C@H](C)C(=O)N2CC(=O)Nc1ccc(Cl)c(F)c1 (single isomer, unassigned) [#260] | < 15.8 | < 15.8 | – | – |
| Cc1cc2c(c(F)n1)-c1cc(F)cnc1C(C)C(=O)N2CC(=O)Nc1ccc(C(F)F)cc1 (single isomer, unassigned) [#261, N-[4-(difluoromethyl)phenyl]-2-[3,14-difluoro-5,10-dimethyl-9-oxo-4,8,12-triazatricyclo[9.4.0.0^2,7]pentadeca-1(11),2(7),3,5,12,14-hexaen-8-yl]acetamide] | < 15.8 | < 15.8 | – | – |
| Cc1cc2c(c(F)n1)-c1cc(F)cnc1C(C)C(=O)N2CC(=O)Nc1ccc(C(F)(F)F)nc1 (single isomer, unassigned) [#262, 2-[3,14-difluoro-5,10-dimethyl-9-oxo-4,8,12-triazatricyclo[9.4.0.0^2,7]pentadeca-1(11),2(7),3,5,12,14-hexaen-8-yl]-N-[6-(trifluoromethyl)-3-pyridyl]acetamide] | 15.8 to 39.8 | 15.8 to 39.8 | – | – |
| Cc1cc2c(c(F)n1)-c1cc(F)cnc1C(C)C(=O)N2CC(=O)Nc1ccc(C(C)(F)F)cc1 (single isomer, unassigned) [#263, 2-[3,14-difluoro-5,10-dimethyl-9-oxo-4,8,12-triazatricyclo[9.4.0.0^2,7]pentadeca-1(15),2,4,6,11,13-hexaen-8-yl]-N-[4-(1,1-difluoroethyl)phenyl]acetamide] | < 15.8 | < 15.8 | – | – |
